# From US9049863B2, “Substituted (3R,4R)-4-cyan-3,4-diphenylbutanoates, method for the production thereof and use thereof as herbicides and plant growth regulators” (Bayer Intellectual Property GmbH, priority 2011, dated 2015)
# Test system: a plurality of harmful plants
# Assay: Herbicidal pre-emergence action
# Format: in vivo
# Settings: 320 g or less of active substance per hectare
# From the text: Seeds of monocotyledonous and dicotyledonous weed plants and crop plants are placed in wood-fiber pots in sandy loam and covered with soil. The compounds (I) according to the invention, formulated in the form of wettable powders (WP), are then applied as aqueous suspension or emulsion at a water application rate of 600 l/ha (converted) with the addition of 0.2% of wetting agent to the surface of the covering soil.
# After the treatment, the pots are placed in a greenhouse and kept under good growth conditions for the test plants. After about 3 weeks, the effect of the preparations is scored visually in comparison with untreated controls as percentages. For example, 100% activity=the plants have died, 50% herbicidal activity or damage=the plants have been reduced by 50% or the plant mass has been reduced by 50%, 0% activity=like control plants.
row,Compound,herbicidal activity against a plurality of harmful plants
1,COC(=O)C[C@@H](c1cccc(F)c1)[C@@H](C#N)c1cccc(F)c1 [Example 2],good herbicidal activity
2,COC(=O)C[C@@H](c1ccc(Cl)cc1)[C@@H](C#N)c1ccc(F)c(F)c1 [Example 3],good herbicidal activity
3,COC(=O)C[C@@H](c1ccc(Br)cc1)[C@@H](C#N)c1cccc(F)c1 [Example 4],good herbicidal activity
4,COC(=O)C[C@@H](c1cccc(F)c1)[C@@H](C#N)c1cccc(Cl)c1 [Example 5],good herbicidal activity
5,COC(=O)C[C@@H](c1cccc(F)c1)[C@@H](C#N)c1ccc(F)c(F)c1 [Example 6],good herbicidal activity
6,COC(=O)C[C@@H](c1cccc(F)c1)[C@@H](C#N)c1ccccc1 [Example 7],good herbicidal activity
7,COC(=O)C[C@@H](c1cccc(F)c1)[C@@H](C#N)c1ccc(F)cc1 [Example 8],good herbicidal activity
8,COC(=O)C[C@@H](c1cccc(Cl)c1)[C@@H](C#N)c1cccc(F)c1 [Example 9],good herbicidal activity
9,"COC(=O)C[C@@H](c1cccc(Cl)c1)[C@@H](C#N)c1ccc(F)c(F)c1 [Example 10, Methyl (3R,4R)-3-(3-chlorophenyl)-4-cyano-4-(3,4-difluorophenyl)butanoate]",good herbicidal activity
10,COC(=O)C[C@@H](c1cccc(F)c1)[C@@H](C#N)c1cccc(Br)c1 [Example 11],good herbicidal activity
11,COC(=O)C[C@@H](c1cccc(F)c1)[C@@H](C#N)c1cc(F)cc(F)c1 [Example 12],good herbicidal activity
12,COC(=O)C[C@@H](c1ccccc1F)[C@@H](C#N)c1cccc(F)c1 [Example 13],good herbicidal activity
13,COC(=O)C[C@@H](c1ccc(Cl)cc1)[C@@H](C#N)c1cc(F)c(F)c(F)c1 [Example 14],good herbicidal activity
14,COC(=O)C[C@@H](c1cccc(Cl)c1)[C@@H](C#N)c1ccc(F)cc1 [Example 15],good herbicidal activity
15,COC(=O)C[C@@H](c1ccc(Cl)c(F)c1)[C@@H](C#N)c1ccc(F)c(F)c1 [Example 16],good herbicidal activity
16,COC(=O)C[C@@H](c1ccccc1F)[C@@H](C#N)c1ccc(F)c(F)c1 [Example 17],good herbicidal activity
17,COC(=O)C[C@@H](c1cccc(F)c1F)[C@@H](C#N)c1cccc(F)c1 [Example 18],good herbicidal activity
18,COC(=O)C[C@@H](c1cc(F)cc(F)c1)[C@@H](C#N)c1ccc(F)cc1 [Example 19],good herbicidal activity
19,COC(=O)C[C@@H](c1ccc(F)cc1)[C@@H](C#N)c1cccc(F)c1 [Example 20],good herbicidal activity
20,COC(=O)C[C@@H](c1cc(F)cc(Cl)c1)[C@@H](C#N)c1ccc(F)c(F)c1 [Example 21],good herbicidal activity
21,COC(=O)C[C@@H](c1cc(F)cc(Cl)c1)[C@@H](C#N)c1cccc(F)c1 [Example 22],good herbicidal activity
22,COC(=O)C[C@@H](c1cc(F)ccc1F)[C@@H](C#N)c1cccc(F)c1 [Example 23],good herbicidal activity

row,Compound,herbicidal activity against a plurality of harmful plants
1,COC(=O)C[C@@H](c1cccc(F)c1F)[C@@H](C#N)c1ccc(F)c(F)c1 [Example 24],good herbicidal activity
2,COC(=O)C[C@@H](c1cc(F)ccc1F)[C@@H](C#N)c1ccc(F)c(F)c1 [Example 25],good herbicidal activity
3,COC(=O)C[C@@H](c1cc(F)cc(Cl)c1)[C@@H](C#N)c1cccc(Cl)c1 [Example 26],good herbicidal activity
4,COC(=O)C[C@@H](c1cccc(Cl)c1)[C@@H](C#N)c1ccc(Cl)c(F)c1 [Example 27],good herbicidal activity
5,COC(=O)C[C@@H](c1cccc([N+](=O)[O-])c1)[C@@H](C#N)c1ccc(F)c(F)c1 [Example 28],good herbicidal activity
6,COC(=O)C[C@@H](c1ccccc1)[C@@H](C#N)c1ccc(F)c(F)c1 [Example 29],good herbicidal activity
7,COC(=O)C[C@@H](c1cccc(F)c1)[C@@H](C#N)c1ccc(F)c(Cl)c1 [Example 30],good herbicidal activity
8,CCOC(=O)C[C@@H](c1ccc(OC)cc1)[C@@H](C#N)c1ccc(F)c(F)c1 [Example 31],good herbicidal activity
9,N#C[C@@H](c1cccc(F)c1)[C@@H](CC(=O)OC1COC1)c1ccc(Cl)cc1 [Example 53],good herbicidal activity
10,N#C[C@@H](c1cccc(F)c1)[C@@H](CC(=O)OCCSc1ccccc1)c1ccc(Cl)cc1 [Example 54],good herbicidal activity
11,N#C[C@@H](c1cccc(F)c1)[C@@H](CC(=O)OCC[S+]([O-])c1ccccc1)c1ccc(Cl)cc1 (stereo partly shown) [Example 55],good herbicidal activity
12,CCOC(=O)C[C@@H](c1cccc(F)c1)[C@@H](C#N)c1ccc(F)c(F)c1 [Example 83],good herbicidal activity
13,CCCOC(=O)C[C@@H](c1cccc(F)c1)[C@@H](C#N)c1ccc(F)c(F)c1 [Example 84],good herbicidal activity
14,CC(C)OC(=O)C[C@@H](c1cccc(F)c1)[C@@H](C#N)c1ccc(F)c(F)c1 [Example 85],good herbicidal activity
15,CC(C)COC(=O)C[C@@H](c1cccc(F)c1)[C@@H](C#N)c1ccc(F)c(F)c1 [Example 87],good herbicidal activity
16,"N#C[C@@H](c1ccc(F)c(F)c1)[C@@H](CC(=O)O)c1cccc(Cl)c1 [Example 107, (3R,4R)-3-(3-Chlorophenyl)-4-cyano-4-(3,4-difluorophenyl)butanoic acid]",good herbicidal activity
17,CCOC(=O)C[C@@H](c1cccc(Cl)c1)[C@@H](C#N)c1ccc(F)c(F)c1 [Example 108],good herbicidal activity
18,CCCCOC(=O)C[C@@H](c1cccc(Cl)c1)[C@@H](C#N)c1ccc(F)c(F)c1 [Example 111],good herbicidal activity
19,CC(C)COC(=O)C[C@@H](c1cccc(Cl)c1)[C@@H](C#N)c1ccc(F)c(F)c1 [Example 112],good herbicidal activity
20,COC(=O)C[C@@H](c1c(F)cccc1F)[C@@H](C#N)c1cccc(F)c1 [Example 162],good herbicidal activity
21,COC(=O)C[C@@H](c1c(F)cccc1F)[C@@H](C#N)c1ccc(F)c(F)c1 [Example 174],good herbicidal activity
